Test results as given in patent US20250354117A1, “METHODS OF GENERATING NATURAL KILLER CELLS FROM PLURIPOTENT STEM CELLS AND COMPOSITIONS THEREOF” (THE CHILDREN'S MEDICAL CENTER CORPORATION, priority 2022, published 2025).
“Also recorded” adds a separate entry of the source.

Columns and labels:
[1] = system: CD34+ umbilical cord blood HSPCs; test: In vitro T cell differentiation (Notch-based, stroma-free) of CRISPR/Cas9 RNP-edited HSPCs, flow cytometry; parameters: species or system human; conditions: six weeks of in vitro differentiation, Cas9 RNP knockout of EHMT1, n=3; for CD56+CD3− natural killer (NK) cells (fractional abundance within CD45+DAPI− population): AAVS1-targeting gRNA control: 1.2±0.45%; for CD56−CD3+ T cells (fractional abundance within CD45+DAPI− population): AAVS1-targeting gRNA control: 38.7±12.5%
Description: Genetic knockouts of select genes were generated in primary hematopoietic stem and progenitor cells (HSPCs) via nucleofection of CRISPR/Cas9 ribonucleoproteins (RNPs). Two independent knockouts were generated for each gene using separate gRNAs and knockouts were replicated across two different donor pools of human umbilical cord blood. First, CD34+ cord blood cells (AllCells) were thawed via dropwise addition of RPMI 1640+10% FBS. Cells were centrifuged at 200 g for 8 minutes and subsequently washed with FACS buffer (PBS+2% FBS). Cells were cultured for 48 hours prior to nucleofection at a density of 250,000 cells/mL in SFEM II™ media (StemCell Technologies) supplemented with 100 ng/mL SCF, TPO, FLT3L, and IL-6 (Peprotech) within a 5% O2, 5% CO2, 37° C. incubator. Next, the top two protospacer sequences for each desired gene were selected from the Brunello genome-wide knockout library (Broad Institute) based on the Rule Set 2 score. A control gRNA targeting the AAVS1 locus was designed in Benchling™. All gRNA sequences were synthesized by IDT as an Alt-R CRISPR/Cas9 sgRNA. RNPs were complexed by incubating 105 pmol of Cas9 protein (IDT) with 125 pmol of sgRNA in a 5 uL total volume for 10 minutes at room temperature. CD34+ cord blood HSPCs were washed with FACS buffer and 125,000 cells were resuspended in 20 μL of P3 Primary Cell Nucleofection Solution (Lonza) per nucleofection. RNPs were nucleofected into HSPCs with 3.85 uM electroporation enhancer (IDT) using a 16-reaction nucleovette on a Lonza 4D-Nucleofector (program DZ-100). Cells were cultured for 36-48 hours at 5% O2, 5% CO2 in 96-well U-bottom plates (Corning) then subsequently harvested for genomic DNA extraction and initiation of in vitro differentiation assays.
Following 36-48 hours post-nucleofection of Cas9 RNPs, 5,000 cord blood HSPCs were differentiated to T cell lineages using the StemSpan™ T cell Generation Kit (Stem Cell Technologies) per the manufacturer's instructions with n=3 replicate differentiations per gRNA. Total viable cell counts were performed on Day 14, 28 and 42 of differentiation. T cell development was assessed by flow cytometry on days 14 and 42 of differentiation to assess lymphoid progenitors (CD45, CD5 and CD7) and mature T cells (CD45, CD4, CD8, CD3, CD56, CD5 and CD7), respectively. Cells were stained with propidium iodide as a viability marker and the following antibodies for flow cytometry: CD45 APC-Cy7 (557833, BD Biosciences), CD4 PE-Cy5 (IM2636U, Beckman Coulter Immunotech), CD8-BV421 (RPA-T8, BD Horizon), CD5-BV510 (UCHT2, BD Biosciences), CD3-PE-Cy7 (UCHT1, BD Pharmigen), CD7-PE (555361, BD Pharmigen), CD56 FITC (BD Pharmigen). […]

[2] = system: CD34+ umbilical cord blood HSPCs; test: UNC0642 treatment during T cell differentiation, flow cytometry; type: cell-based, human; conditions: continuous treatment 10, 50, 100, 500 nM; 28 days of differentiation; vs DMSO control
Excerpt: Error bars represent the standard deviation across n=3 independent differentiations per dose of UNC0642. *=p<0.05 compared to the DMSO control using a two-tailed Wilcoxon sum-rank test.
Error bars represent standard deviation. N=3 independent differentiation replicates per dose of UNC0642.
CD34+ umbilical cord blood cells (AllCells) were thawed from liquid nitrogen storage and T cell differentiation was immediately initiated with a StemSpan T cell Generation Kit (Stem Cell Technologies, 09940), as described above. Cells were treated with UNC0642 (Cayman Chemical, 14604) over the entire duration of the differentiation and fresh compound was supplemented every 3-4 days to the media. A range of doses were tested (10 nM, 50 nM, 100 nM, and 500 nM) alongside a 0.5% DMSO vehicle control with n=3 replicate differentiations per condition. Cells were collected after 28 days of differentiation to assess NK and T cell populations by flow cytometry.

[3] = system: FKBP12^F36V tagged TRIM28; test: Western-blot for TRIM28 on dTAG knockin iPS clones; type: cell-based, human; conditions: 500 nM, 24 hours, four iPS clones, vs DMSO
Description: FIG. 35A-35F examines rapid and selective degradation of endogenous TRIM28 in human iPS cells. […] An mNeon-FKBP12^F36V open reading frame DNA sequence was knocked into the TRIM28 locus (SEQ ID NO: 32) to tag the N-terminus of TRIM28 and thus create an mNeon-FKBP12^F36V-TRIM28 fusion protein. The knockin was achieved through CRISPR/Cas9-mediated HDR (gRNA, SEQ ID: 31) where the knockin cassette was delivered to cells in an rAAV6 vector. FIG. 35B examines bulk knockin efficiency was assessed with flow cytometry for mNeon five days after simultaneous CRISPR/Cas9 RNP nucleofection and rAAV6 infection of iPS cells (MOI: 50,000 viral genomes/cells). […] The wild-type, unedited locus results in an amplicon of 1,204 bp and the knockin locus generates an amplicon of 2,371 bp. (*) denotes biallelic knockin clones. FIG. 35D analyzes microscopy for DAPI and mNeon on a biallelic knockin iPS clone to visualize nuclear localization of mNeon signal, consistent with the known nuclear localization of endogenous TRIM28 proteins. FIG. 35E examines titration of degrader molecules (dTAG-13 and dTAG^V-1) on a biallelic knockin iPS clone, assayed by flow cytometry for mNeon as a quantitative proxy for TRIM28 protein expression.

| Compound | CD56+CD3− natural killer (NK) cells (fractional abundance within CD45+DAPI− population) [1] | CD56−CD3+ T cells (fractional abundance within CD45+DAPI− population) [1] | proportion of CD56+CD3− NK cells and CD56−CD3+ T cells [2] | TRIM28 protein degradation [3] |
| --- | --- | --- | --- | --- |
| EHMT1 gRNA02: SEQ ID NO: 6, TTCGGCTGCTTCCATCAACG; Alt-R CRISPR/Cas9 sgRNA delivered as Cas9 RNP (guide UUCGGCUGCUUCCAUCAACG; IDT Alt-R synthetic sgRNA, modifications not given here) | 58.7±4.9% | 6.6±0.69% | – | – |
| EHMT1 gRNA01: SEQ ID NO: 5, GGGCCGGTGCACAAACAGCG; Alt-R CRISPR/Cas9 sgRNA delivered as Cas9 RNP (guide GGGCCGGUGCACAAACAGCG; IDT Alt-R synthetic sgRNA, modifications not given here) | 35.4±5.7% | 13.9±1.8% | – | – |
| COc1cc2c(NC3CCN(C(C)C)CC3)nc(N3CCC(F)(F)CC3)nc2cc1OCCCN1CCCC1 [UNC0642] | – | – | dose-dependent acquisition of NK cells; also recorded: dose-dependent phenocopy of the EHMT1 CRISPR/Cas9 knockout | – |
| CC[C@H](C(=O)N1CCCC[C@H]1C(=O)O[C@H](CCc1ccc(OC)c(OC)c1)c1ccccc1OCC(=O)NCCCCCCC(=O)N[C@H](C(=O)N1C[C@H](O)C[C@H]1C(=O)N[C@@H](C)c1ccc(-c2scnc2C)cc1)C(C)(C)C)c1cc(OC)c(OC)c(OC)c1 [dTAG^V-1] | – | – | – | near-complete degradation |
